Columns and labels:
Test in all cases: Cell viability (MTS) assay, targeted toxin mediated cell killing
Assay type in all cases: cell-based, human
Details in all cases: read-out: IC50, 1500 nM SO1861, toxin or toxin conjugate titrated + 1500 nM unconjugated SO1861
JIMT-1 cells = tested on: JIMT-1 cells
Procedure: (§1) Cells were seeded in a 96 well plate at 5.000-10.000 c/w in 100 μL/well and incubated overnight at 37° C. […] The media was removed from the cell culture plate and replaced by 180 μL culture media, followed by the addition of 20 μL treatment-mix/well. […] In the case that endosomal acidification inhibitors (chloroquine (Sigma Aldrich) or bafilomycin A1 (Enzo Life Sciences)) were used, the cell culture media in step 1 of treatment was replaced by 180 μL media containing 1 pM chloroquine or 0.2 pM bafilomycin A1. The plate was incubated for 1 hour at 37° C., before the 10× treatment-mix samples were added.
(§2) After treatment the cells were incubated for 72 hr at 37° C. before the cell viability was determined by a MTS-assay, performed according to the manufacturer's instruction (CellTiter 96® AQueous One Solution Cell Proliferation Assay, Promega). Briefly, the MTS solution was diluted 20× in DMEM without phenol red (PAN-Biotech GmbH) supplemented with 10% FBS (PAN-Biotech GmbH). […] Subsequently, the optical density at 492 nm was measured on a Thermo Scientific Multiskan FC plate reader (Thermo Scientific). For quantification the background signal of ‘medium only’ wells was subtracted from all other wells, before the ratio of untreated/treated cells was calculated, by dividing the background corrected signal of untreated wells over the background corrected signal of the treated wells.

CaSki cells = tested on: CaSki cells
Procedure: as §1, §2

HeLa cells = tested on: HeLa cells
Procedure: as §1, §2

**Q.** What does the source list for Saporin?
**A.** IC50 (JIMT-1 cells): 0.03 nM; IC50 (CaSki cells): 0.015 nM; IC50 (HeLa cells): 0.03 nM

— patent US20230256111A1, “C[…] ADC OR AN AOC COMPRISING A VHH, AND A SAPONIN OR A LIGAND-SAPONIN CONJUGATE” (SAPREME TECHNOLOGIES B.V., priority 2020, published 2023)
